The text below walks through data of US9315475B2 (MERCK SHARP & DOHME CORP., priority 2011, dated 2016).

A word on the pEC50: it is −log10 of the EC50, conventionally taken in molar units. A lower pEC50 goes with a large EC50.

Structures are written as SMILES. pEC50, pIC50: −log10 of the molar value.

In one assay the test system is HIV-1 (H9IIIB strain). The assay can be described thus: Antiviral acute infection assay in cell culture (Spread). The class given is cell-based. The note with it: Human immunodeficiency virus 1, T-lymphoid, HIV-1 H9IIIB infection of MT-4 human T-lymphoid cells in 10% FBS; mean of at least two independent experiments. The source says: Antiviral Assays in Cell Culture (“Spread”)
Acute Infection Assay (“Spread”) data were generated using HIV-1 (H9IIIB strain) infection of MT-4 human T-lymphoid cells in 10% FBS, and according to the methods disclosed by J. P. Vacca et al, “L-735,524: An orally bioavailable human immunodeficiency virus type 1 protease inhibitor,” Proc. Natl. Acad. Sci. USA, Vol. 91, pp. 4096-4100 (April 1994).

The target in the next assay is T1, wildtype HIV-1 protease (Human immunodeficiency virus type 1 group M subtype B, UniProt P04585).
T1 construct: the wildtype HIV-1 protease (which was expressed in Escherichia coli); made in house; host or cells: Escherichia coli
The assay can be described thus: Assay for inhibition of microbial expressed HIV protease (Pepcleav). The class given is biochemical. The note with it: wild type HIV-1 protease expressed in E. coli, peptide substrate, pH 5.5; mean of at least two independent experiments; read-out: Pepcleav. The gist of the method:
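Cleavage of 400 μM peptide substrate Val-Ser-Gln-Asn-(βnaphthyl)Ala-Pro-Ile-Val by 20 pM wild-type enzyme (E. coli-expressed) ran 1 h at 30 °C after 30 min inhibitor preincubation, pH 5.5 acetate buffer. Inhibition derived from product peak area by C18 LC with multiple-reaction-monitoring MS after formic acid quench.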

For a further assay, the system named is HIV. The note with it: HIV-infected patients, in combination with nucleoside reverse transcriptase inhibitors; cited from earlier work.

For the molecule `COC(=O)N[C@H](C(=O)Nc1cccc(F)c1CC[C@@H]1CN[C@H](COC(=O)NCC(F)(F)F)CO1)[C@H](c1ccccc1)c1ccc(F)c(F)c1` [Example 294, (βR)-β-(3,4-difluorophenyl)-N-(3-fluoro-2-{2-[(2R,5S)-5-({[(2,2,2-trifluoroethyl)carbamoyl]oxy}methyl)morpholin-2-yl]ethyl}phenyl)-Nα-(methoxycarbonyl)-L-phenylalaninamide], in the assay with HIV-1 (H9IIIB strain), the pEC50 was 7.85. Moreover, the pIC50 on wildtype HIV-1 protease was 8.42.

In the assay with HIV-1 (H9IIIB strain), `COC(=O)N[C@H](C(=O)Nc1cccc(F)c1CC[C@@H]1CN[C@H](COC(=O)NCC(F)(F)F)CO1)[C@H](c1ccc(F)cc1)c1ccc(F)c(F)c1` [Example 295, (βR)-β-(3,4-difluorophenyl)-4-fluoro-N-(3-fluoro-2-{2-[(2R,5S)-5-({[(2,2,2-trifluoroethyl)carbamoyl]oxy}methyl)morpholin-2-yl]ethyl}phenyl)-Nα-(methoxy-carbonyl)-L-phenylalaninamide] showed a pEC50 of 7.89. The pIC50 on wildtype HIV-1 protease is 8.60. The like results for `COC(=O)N[C@H](C(=O)Nc1cccc(F)c1CC[C@@H]1CN[C@H](COC(=O)NCC(F)(F)F)CO1)[C@H](c1ccccc1)c1ccc(OC)cc1` [Example 296, (βR)-N-(3-fluoro-2-{2-[(2R,5S)-5-({[(2,2,2-trifluoroethyl)carbamoyl]oxy}methyl)morpholin-2-yl]ethyl}phenyl)-Nα-(methoxy-carbonyl)-O-methyl-β-phenyl-L-tyrosinamide] were, in that order, 6.92 and 7.64. On the same counts, the results for `COC(=O)N[C@H](C(=O)Nc1cncc(F)c1CC[C@@H]1CN[C@H](COC(=O)NCC(F)(F)F)CO1)[C@H](c1ccc(F)cc1)c1ccc(F)c(F)c1` [Example 297, (βR)-3,4-difluoro-β-(4-fluorophenyl)-N-(5-fluoro-4-{2-[(2R,5S)-5-({[(2,2,2-trifluoroethyl)carbamoyl]oxy}methyl)morpholin-2-yl]ethyl}pyridin-3-yl)-Nα-(methoxycarbonyl)-L-phenylalaninamide] are 7.82 and 9.00. As for `COC(=O)N[C@H](C(=O)Nc1cncc(F)c1CC[C@@H]1CN[C@H](COC(=O)NCC(F)(F)F)CO1)[C@H](c1ccc(F)cc1)c1ccc(Br)cc1` [Example 298, (βR)-β-(4-bromophenyl)-4-fluoro-N-(5-fluoro-4-{2-[(2R,5S)-5-({[(2,2,2-trifluoroethyl)carbamoyl]oxy}methyl)morpholin-2-yl]ethyl}pyridin-3-yl)-Nα-(methoxycarbonyl)-L-phenylalaninamide], in the assay with HIV-1 (H9IIIB strain), the negative logarithm of the EC50 (pEC50) was 7.85. Besides, the pIC50 at wildtype HIV-1 protease was 9.52. `COC(=O)N[C@H](C(=O)Nc1cccc(F)c1CC[C@@H]1CN[C@H](COC(=O)NCC(F)(F)F)CO1)[C@H](c1ccc(F)cc1)c1ccc(OC)cc1` [Example 299, (βS)-β-(4-fluorophenyl)-N-(3-fluoro-2-{2-[(2R, 5S)-5-({[(2,2,2-trifluoroethyl)carbamoyl]oxy}methyl)morpholin-2-yl]ethyl}phenyl)-Nα-(methoxy-carbonyl)-O-methyl-L-tyrosinamide] gave a pEC50 in the assay with HIV-1 (H9IIIB strain) of 7.49. Further, the pIC50 on wildtype HIV-1 protease was 7.82. Molecule `COC(=O)N[C@H](C(=O)Nc1cncc(F)c1CC[C@@H]1CN[C@H](COC(=O)NCC(F)(F)F)CO1)[C@@H](c1ccc(F)cc1)c1cc(F)ccc1F` [Example 300, (βS)-2,5-difluoro-β-(4-fluorophenyl)-N-(5-fluoro-4-{2-[(2R,5S)-5-({[(2,2,2-trifluoroethyl)carbamoyl]oxy}methyl)morpholin-2-yl]ethyl}pyridin-3-yl)-Nα-(methoxycarbonyl)-L-phenylalaninamide] had a pEC50 in the assay with HIV-1 (H9IIIB strain) of 7.74. At wildtype HIV-1 protease, the pIC50 is 8.80. On the same counts, the results for `COC(=O)N[C@H](C(=O)Nc1cccc(F)c1CC[C@@H]1CN[C@H](COC(=O)NCC(F)(F)F)CO1)[C@@H](c1ccc(F)cc1)c1cccc(OC(F)(F)F)c1` [Example 303, (βS)-4-fluoro-N-(3-fluoro-2-{2-[(2R, 5S)-5-({[(2,2,2-trifluoroethyl)carbamoyl]oxy}methyl)morpholin-2-yl]ethyl}phenyl)-Nα-(methoxy-carbonyl)-β-[3-(trifluoromethoxy)phenyl]-L-phenylalaninamide] are 7.62 and 8.28. Consider `COC(=O)N[C@H](C(=O)Nc1cccc(F)c1CC[C@@H]1CN[C@H](COC(=O)NCC(F)(F)F)CO1)[C@H](c1ccccc1)c1cccc(OC)c1` [Example 305, (βR)-N-(3-fluoro-2-{2-[(2R,5S)-5-({[(2,2,2-trifluoroethyl)carbamoyl]oxy}methyl)morpholin-2-yl]ethyl}phenyl)-3-methoxy-Nα-(methoxy-carbonyl)-β-phenyl-L-phenylalaninamide], for which, in the assay with HIV-1 (H9IIIB strain), the negative-log EC50 (pEC50) is 7.38. Besides, the pIC50 on wildtype HIV-1 protease is 6.64. The like results for `COC(=O)N[C@H](C(=O)Nc1cccc(F)c1CC[C@@H]1CN[C@H](COC(=O)NCC(F)(F)F)CO1)C(c1cccc(F)c1)c1cccc(F)c1` [Example 307, 3-fluoro-β-(3-fluorophenyl)-N-(3-fluoro-2-{2-[(2R,5S)-5-({[(2,2,2-trifluoroethyl)carbamoyl]oxy}methyl)morpholin-2-yl]ethyl}phenyl)-Nα-(methoxy-carbonyl)-L-phenylalaninamide] were, in that order, 7.85 and 8.52. As to `CC(C)(C)NC(=O)[C@@H]1CN(Cc2cccnc2)CCN1C[C@@H](O)C[C@@H](Cc1ccccc1)C(=O)N[C@H]1c2ccccc2C[C@H]1O` [Indinavir, indinavir], the “effect on HIV viral loads and CD4 cell counts” value in the assay with HIV was “highly effective in reducing HIV viral loads and increasing CD4 cell counts”.
